Assay results reported in US20090202698A1, “OLIGOPEPTIDES FOR USE AS TASTE MODULATORS” (Nutrinova Nutrition Specialties & Food Ingredients GmbH, priority 2008, published 2009).

Molecular target: T1, human T1R2/T1R3 taste receptor (Homo sapiens, UniProt Q7RTX0+Q8TE23)
T1 construct: the cDNA for the receptors ht1R2 and ht1R3 and the cDNA for the blasticidin S deaminase gene have been cloned; expressed in transfected cells; host or cells: HEK293 stably expressing mouse G-alpha-15, stably transfected with the tricistronic vector pTrix-Eb-R2R3 (blasticidin selection)
T1 sequence (Q8TE23 20-839): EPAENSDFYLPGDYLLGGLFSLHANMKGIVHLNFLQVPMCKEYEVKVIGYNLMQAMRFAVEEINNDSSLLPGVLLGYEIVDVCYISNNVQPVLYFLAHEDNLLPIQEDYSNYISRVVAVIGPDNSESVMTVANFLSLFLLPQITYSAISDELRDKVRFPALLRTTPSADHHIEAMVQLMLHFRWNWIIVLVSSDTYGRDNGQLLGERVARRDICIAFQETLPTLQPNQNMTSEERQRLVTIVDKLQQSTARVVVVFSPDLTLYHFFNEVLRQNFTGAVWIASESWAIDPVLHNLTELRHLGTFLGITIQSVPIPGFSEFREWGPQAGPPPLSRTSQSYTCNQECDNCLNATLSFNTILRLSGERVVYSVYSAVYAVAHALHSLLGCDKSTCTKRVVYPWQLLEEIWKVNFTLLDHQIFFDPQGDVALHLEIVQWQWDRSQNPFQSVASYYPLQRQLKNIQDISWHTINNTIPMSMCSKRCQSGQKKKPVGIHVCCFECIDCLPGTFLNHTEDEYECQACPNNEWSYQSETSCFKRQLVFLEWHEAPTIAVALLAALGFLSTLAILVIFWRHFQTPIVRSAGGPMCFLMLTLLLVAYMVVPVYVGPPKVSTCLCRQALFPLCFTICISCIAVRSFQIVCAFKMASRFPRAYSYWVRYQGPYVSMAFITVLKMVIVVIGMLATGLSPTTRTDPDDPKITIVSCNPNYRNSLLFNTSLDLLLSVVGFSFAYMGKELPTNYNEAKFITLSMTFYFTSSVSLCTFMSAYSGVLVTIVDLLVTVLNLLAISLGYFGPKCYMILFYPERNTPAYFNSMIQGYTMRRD
T1 sequence (Q7RTX0 21-852): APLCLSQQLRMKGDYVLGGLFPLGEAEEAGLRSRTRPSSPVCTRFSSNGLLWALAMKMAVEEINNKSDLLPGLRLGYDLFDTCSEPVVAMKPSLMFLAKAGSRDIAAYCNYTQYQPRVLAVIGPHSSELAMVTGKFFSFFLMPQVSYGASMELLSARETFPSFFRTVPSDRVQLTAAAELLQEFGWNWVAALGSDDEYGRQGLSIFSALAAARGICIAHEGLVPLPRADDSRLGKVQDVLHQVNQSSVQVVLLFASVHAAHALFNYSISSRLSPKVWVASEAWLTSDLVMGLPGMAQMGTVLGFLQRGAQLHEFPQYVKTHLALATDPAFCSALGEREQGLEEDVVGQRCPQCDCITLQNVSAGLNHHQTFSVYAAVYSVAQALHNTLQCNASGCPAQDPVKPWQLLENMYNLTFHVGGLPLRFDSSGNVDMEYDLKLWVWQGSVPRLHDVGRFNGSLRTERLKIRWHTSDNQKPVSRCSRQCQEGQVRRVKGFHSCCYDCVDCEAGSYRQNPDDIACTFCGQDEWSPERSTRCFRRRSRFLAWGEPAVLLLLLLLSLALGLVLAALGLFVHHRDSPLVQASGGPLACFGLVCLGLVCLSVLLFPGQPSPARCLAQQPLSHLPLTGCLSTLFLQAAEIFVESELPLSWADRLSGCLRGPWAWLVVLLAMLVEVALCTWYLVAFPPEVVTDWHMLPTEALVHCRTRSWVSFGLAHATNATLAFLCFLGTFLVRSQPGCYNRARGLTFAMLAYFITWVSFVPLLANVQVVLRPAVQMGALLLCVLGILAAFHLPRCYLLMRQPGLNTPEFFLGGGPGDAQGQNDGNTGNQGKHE
Assay: Recombinant human T1R2/T1R3 taste receptor dependent calcium (Fluo-4 AM) cell based assay in stable HEK293 cells
Protocol: Fluo-4 AM assay with stable HEK293 cells—Stable cells are maintained in DMEM high-glucose medium (Invitrogen) supplemented with 10% fetal bovine serum (Biochrom) and 4 mM L-glutamine (Invitrogen). Cells for calcium imaging are maintained in DMEM low-glucose medium supplemented with 10% FBS and 1× Glutamax-1 (Invitrogen) for 48 hours before seeding. These stable cells are trypsinized after 48 hours (either with Trypsin-EDTA, Accutase or TrypLE) and seeded onto poly-D-lysine coated 96-well assay plates (Corning) at a density of 45,000 cells/well in DMEM low-glucose medium supplemented with 10% FBS and 1× Glutamax-1.
After 24 hours, the cells were loaded in 100 μl medium with additional 100 μl of 4 μM Fluo-4 (calcium sensing dye, 2 μM end concentration; Molecular Probes) in Krebs-HEPES (KH)-buffer for 1 hour. The loading reagent is then replaced by 80 μl KH-buffer per well. The Krebs-HEPES-buffer (KH-buffer) is a physiological saline solution including 1.2 mM CaCl2, 4.2 mM NaHCO3 and 10 mM HEPES.
The dye-loaded stable cells in plates were placed into a fluorescence microtiter plate reader to monitor fluorescence (excitation 488 nm, emission 520 nm) change after the addition of 20 μl KH-buffer supplemented with 5x tastants. For each trace, tastant was added 11.5 seconds after the start of the scan and mixed two times with the buffer, scanning continued for an additional 32 seconds, and data were collected every second.
Data analysis/Data recording—Calcium mobilization was quantified as the change of peak fluorescence OF) over the baseline level (F). Data were expressed as the mean S.E. of the )F/F value of replicated independent samples. The analysis was done with the software of the microtiter plate reader.
To analyze the function and activity of aladapcin the heterodimeric T1R2/T1R3 sweet taste receptor has been utilized in a calcium dependent cell based assay. T1R type taste receptors have been transfected with the multicistronic plasmid vector pTrix-Eb-R2R3 in a HEK293 cell line stably expressing the promiscuous mouse G-alpha-15 G-protein. […]

aladapcin activity on sweet taste receptors (activity as sweet enhancer): amplification of fructose (in the presence of 25 mM fructose, Fluo4-AM fluorescence increase, HEK293 cells expressing G-alpha-15, human T1R2 and T1R3, FIG. 2) | sweetener potential (receptor activation by the compound alone) (without the presence of fructose (control measurement), range 0.1-25 μm, FIG. 3) | activation of the sweet taste receptors by the sweetener alone (25 mM fructose (4.5 g/l), preexaminations) | SMILES
dose dependent | no sweetener potential |  | CC(NC(=O)C(C)NC(=O)C(N)CCCC(N)C(N)=O)C(=O)O (stereo not drawn) [Aladapcin, 2-[2-[(2,6-diamino-6-carbamoyl-hexanoyl)-amino]propanoylamino]propanoic acid]
 |  | barely activating | O=C(CO)[C@@H](O)[C@H](O)[C@H](O)CO [fructose, reference compound]
